Reference: publication PMC8286840, “Identifying SARS-CoV-2 antiviral compounds by screening for small molecule inhibitors of Nsp3 papain-like protease” (Biochemical Journal, 2021)
Counter-ions that a name gives are not always drawn. Like-named read-outs stand apart in the source and are kept apart here.

Tests used:
[1] = target: T1, SARS-CoV-2 PLpro (nsp3 1564–1878) (Severe acute respiratory syndrome coronavirus 2, UniProt P0DTD1); assay: biochemical; parameters: FRET-quenched peptide (Pro3) cleavage by PLpro, 10 min pre-incubation, slope over 20 min, normalised to no-compound control; details: low concentration screen, read-out: % of control remaining
[2] = target: T1, SARS-CoV-2 PLpro (nsp3 1564–1878); assay: biochemical; parameters: FRET-quenched peptide (Pro3) cleavage by PLpro, 10 min pre-incubation, slope over 20 min, normalised to no-compound control; details: high concentration screen, read-out: % of control remaining

Clc1ccccc1C(c1ccccc1)(c1ccccc1)n1ccnc1 [Clotrimazole]
remaining activity at 1.25 µM ([1]; Well no.=372): 97.9% | remaining activity at 3.75 µM ([2]; Well no.=372): 99.9%

Cc1onc(-c2ccccc2Cl)c1C(=O)N[C@@H]1C(=O)N2[C@@H]1SC(C)(C)[C@@H]2C(=O)O [Cloxacillin (sodium monohydrate)]
remaining activity at 1.25 µM ([1]; Well no.=7556): 101% | remaining activity at 3.75 µM ([2]; Well no.=7556): 103%

CN1CCN(C2=Nc3cc(Cl)ccc3Nc3ccccc32)CC1 [Clozapine]
remaining activity at 1.25 µM ([1]; Well no.=182): 99.6% | remaining activity at 1.25 µM ([1]; Well no.=1813): 98.4% | remaining activity at 1.25 µM ([1]; Well no.=6569): 98.5% | remaining activity at 3.75 µM ([2]; Well no.=182): 96.2% | remaining activity at 3.75 µM ([2]; Well no.=1813): 95.3% | remaining activity at 3.75 µM ([2]; Well no.=6569): 97.3%

CC(C)c1nc(CN(C)C(=O)N[C@@H](CCN2CCOCC2)C(=O)N[C@H](CC[C@H](Cc2ccccc2)NC(=O)OCc2cncs2)Cc2ccccc2)cs1 [Cobicistat (GS-9350)]
remaining activity at 1.25 µM ([1]; Well no.=5213): 102% | remaining activity at 3.75 µM ([2]; Well no.=5213): 102%

COc1ccc(/C=C\c2cc(OC)c(OC)c(OC)c2)cc1O [Combretastatin A4]
remaining activity at 1.25 µM ([1]; Well no.=5540): 101% | remaining activity at 3.75 µM ([2]; Well no.=5540): 102%

CCN1C[C@]2(COC)CC[C@H](O)[C@]34C1C(C[C@H]23)[C@@]1(O)C[C@H](OC)[C@H]2C[C@@H]4[C@@H]1[C@H]2OC(C)=O [Condelphine]
remaining activity at 1.25 µM ([1]; Well no.=3107): 93.3% | remaining activity at 3.75 µM ([2]; Well no.=3107): 92.8%

C[C@H]1[C@H]2CC[C@H]3[C@@H]4CC=C5C[C@@H](N(C)C)CC[C@]5(C)[C@H]4CC[C@]23CN1C [Conessine]
remaining activity at 1.25 µM ([1]; Well no.=3100): 94% | remaining activity at 3.75 µM ([2]; Well no.=3100): 93.7%

Nc1c(/N=N/c2ccc(-c3ccc(/N=N/c4cc(S(=O)(=O)O)c5ccccc5c4N)cc3)cc2)cc(S(=O)(=O)O)c2ccccc12 [Congo Red]
remaining activity at 1.25 µM ([1]; Well no.=8614): 101% | remaining activity at 3.75 µM ([2]; Well no.=8614): 104%

Cc1nc2c([nH]1)-c1ccccc1N(C(=O)c1ccc(NC(=O)c3ccccc3-c3ccccc3)cc1)CC2 [Conivaptan (hydrochloride)]
remaining activity at 1.25 µM ([1]; Well no.=6463): 99.7% | remaining activity at 3.75 µM ([2]; Well no.=6463): 101%

c1c2c(cc3c1OCO3)-c1cc3ccc4c(c3c[n+]1CC2)OCO4 [Coptisine (chloride)]
remaining activity at 1.25 µM ([1]; Well no.=8071): 106% | remaining activity at 3.75 µM ([2]; Well no.=8071): 101%

Nc1ncnc2c1ncn2[C@@H]1O[C@H](CO)C[C@H]1O [Cordycepin]
remaining activity at 1.25 µM ([1]; Well no.=7860): 101% | remaining activity at 3.75 µM ([2]; Well no.=7860): 95.9%

C[C@]12CCC(=O)C=C1CC[C@@H]1[C@@H]2CC[C@@]2(C)[C@H]1CC[C@]2(O)C(=O)CO [Cortexolone]
remaining activity at 1.25 µM ([1]; Well no.=1509): 93.1% | remaining activity at 3.75 µM ([2]; Well no.=1509): 93%

C[C@]12C[C@H](O)[C@H]3[C@@H](CCC4=CC(=O)CC[C@@]43C)[C@@H]1CC[C@@H]2C(=O)CO [Corticosterone]
remaining activity at 1.25 µM ([1]; Well no.=285): 93.6% | remaining activity at 1.25 µM ([1]; Well no.=1928): 99.3% | remaining activity at 1.25 µM ([1]; Well no.=7075): 104% | remaining activity at 3.75 µM ([2]; Well no.=285): 92.1% | remaining activity at 3.75 µM ([2]; Well no.=1928): 96.3% | remaining activity at 3.75 µM ([2]; Well no.=7075): 105%

CC(=O)OCC(=O)[C@@]1(O)CC[C@H]2[C@@H]3CCC4=CC(=O)CC[C@]4(C)[C@H]3C(=O)C[C@@]21C [Cortisone 21-acetate]
remaining activity at 1.25 µM ([1]; Well no.=172): 92.9% | remaining activity at 3.75 µM ([2]; Well no.=172): 92.8%

CC(=O)OCC(=O)[C@@]1(O)CC[C@H]2[C@@H]3CCC4=CC(=O)CC[C@]4(C)[C@H]3C(=O)C[C@@]21C [Cortisone (acetate)]
remaining activity at 1.25 µM ([1]; Well no.=6321): 106% | remaining activity at 3.75 µM ([2]; Well no.=6321): 105%

C[C@]12CCC(=O)C=C1CC[C@@H]1[C@@H]2C(=O)C[C@@]2(C)[C@H]1CC[C@]2(O)C(=O)CO [Cortisone]
remaining activity at 1.25 µM ([1]; Well no.=381): 90.6% | remaining activity at 1.25 µM ([1]; Well no.=6485): 101% | remaining activity at 1.25 µM ([1]; Well no.=7431): 102% | remaining activity at 3.75 µM ([2]; Well no.=381): 93.5% | remaining activity at 3.75 µM ([2]; Well no.=6485): 101% | remaining activity at 3.75 µM ([2]; Well no.=7431): 100%

C[C@]12CCC(=O)C=C1CC[C@@H]1[C@@H]2CC[C@@]2(C)[C@H]1CC[C@]2(O)C(=O)CO [Cortodoxone]
remaining activity at 1.25 µM ([1]; Well no.=7330): 98.9% | remaining activity at 3.75 µM ([2]; Well no.=7330): 98%

COc1cc2c(cc1OC)[C@H]1[C@@H](C)c3ccc(OC)c(OC)c3CN1CC2 [Corydaline]
remaining activity at 1.25 µM ([1]; Well no.=3252): 101% | remaining activity at 3.75 µM ([2]; Well no.=3252): 102%

COC(=O)[C@H]1[C@H]2C[C@H]3c4[nH]c5ccccc5c4CCN3C[C@@H]2CC[C@@H]1O [Corynanthine]
remaining activity at 1.25 µM ([1]; Well no.=3795): 97.4% | remaining activity at 3.75 µM ([2]; Well no.=3795): 103%

C=C1C(=O)O[C@@H]2/C=C(\C)CC/C=C(\C)CC[C@@H]12 [Costunolide]
remaining activity at 1.25 µM ([1]; Well no.=5230): 101% | remaining activity at 1.25 µM ([1]; Well no.=6634): 102% | remaining activity at 3.75 µM ([2]; Well no.=5230): 99.1% | remaining activity at 3.75 µM ([2]; Well no.=6634): 101%

CN1C(=O)CC[C@H]1c1cccnc1 [Cotinine]
remaining activity at 1.25 µM ([1]; Well no.=7163): 97.7% | remaining activity at 3.75 µM ([2]; Well no.=7163): 96.3%

CO[C@H]1[C@H](OC(=O)c2ccc(C)[nH]2)[C@H](O)[C@@H](Oc2ccc3c(O)c(NC(=O)c4c[nH]c(C(=O)Nc5c(O)c6ccc(O[C@H]7OC(C)(C)[C@@H](OC)[C@H](OC(=O)c8ccc(C)[nH]8)[C@@H]7O)c(C)c6oc5=O)c4C)c(=O)oc3c2C)OC1(C)C [Coumermycin A1]
remaining activity at 1.25 µM ([1]; Well no.=3175): 105% | remaining activity at 3.75 µM ([2]; Well no.=3175): 104%

O=c1oc2cc(O)ccc2c2oc3cc(O)ccc3c12 [Coumestrol]
remaining activity at 1.25 µM ([1]; Well no.=3514): 100% | remaining activity at 3.75 µM ([2]; Well no.=3514): 93.2%

CN(CC(=O)O)C(=N)N [Creatine]
remaining activity at 1.25 µM ([1]; Well no.=7457): 101% | remaining activity at 3.75 µM ([2]; Well no.=7457): 103%

CN1CC(=O)NC1=N [Creatinine]
remaining activity at 1.25 µM ([1]; Well no.=5324): 96.6% | remaining activity at 1.25 µM ([1]; Well no.=6967): 104% | remaining activity at 3.75 µM ([2]; Well no.=5324): 92.2% | remaining activity at 3.75 µM ([2]; Well no.=6967): 101%

C[C@@H](Oc1cc(-c2cnn(C3CCNCC3)c2)cnc1N)c1c(Cl)ccc(F)c1Cl [Crizotinib]
remaining activity at 1.25 µM ([1]; Well no.=5612): 99.8% | remaining activity at 3.75 µM ([2]; Well no.=5612): 101%

CN(C)c1ccc(C(=C2C=CC(=[N+](C)C)C=C2)c2ccc(N(C)C)cc2)cc1 [Crystal violet]
remaining activity at 1.25 µM ([1]; Well no.=5000): 101% | remaining activity at 3.75 µM ([2]; Well no.=5000): 101%

CC(C)(OO)c1ccccc1 [Cumene hydroperoxide]
remaining activity at 1.25 µM ([1]; Well no.=3843): 103% | remaining activity at 3.75 µM ([2]; Well no.=3843): 100%

COc1cc(/C=C/C(=O)CC(=O)/C=C/c2ccc(O)c(OC)c2)ccc1O [Curcumin]
remaining activity at 1.25 µM ([1]; Well no.=3177): 112% | remaining activity at 1.25 µM ([1]; Well no.=3949): 106% | remaining activity at 3.75 µM ([2]; Well no.=3177): 105% | remaining activity at 3.75 µM ([2]; Well no.=3949): 102%
